In ChEMBL document CHEMBL4251612, “Naturally occurring Diels-Alder-type adducts from Morus nigra as potent inhibitors of Mycobacterium tuberculosis protein tyrosine phosphatase B” (Eur J Med Chem, 2018):
Values after ≈ are worked out from the molar mass of the structure shown. Active and inactive are the calls of the source. The calls are words filed in the database; no cut-off is given here.

Assays:
[1] = target: T1, Tyrosine-protein phosphatase non-receptor type 22 (Homo sapiens, UniProt Q9Y2R2); assay: Inhibition of LYP (unknown origin) using p-nitrophenyl phosphate as substrate preincubated for 10 mins followed by substrate addition measured every minute for 10 mins by UV-VIS spectrophotometric analysis
T1 sequence (Q9Y2R2 whole entry): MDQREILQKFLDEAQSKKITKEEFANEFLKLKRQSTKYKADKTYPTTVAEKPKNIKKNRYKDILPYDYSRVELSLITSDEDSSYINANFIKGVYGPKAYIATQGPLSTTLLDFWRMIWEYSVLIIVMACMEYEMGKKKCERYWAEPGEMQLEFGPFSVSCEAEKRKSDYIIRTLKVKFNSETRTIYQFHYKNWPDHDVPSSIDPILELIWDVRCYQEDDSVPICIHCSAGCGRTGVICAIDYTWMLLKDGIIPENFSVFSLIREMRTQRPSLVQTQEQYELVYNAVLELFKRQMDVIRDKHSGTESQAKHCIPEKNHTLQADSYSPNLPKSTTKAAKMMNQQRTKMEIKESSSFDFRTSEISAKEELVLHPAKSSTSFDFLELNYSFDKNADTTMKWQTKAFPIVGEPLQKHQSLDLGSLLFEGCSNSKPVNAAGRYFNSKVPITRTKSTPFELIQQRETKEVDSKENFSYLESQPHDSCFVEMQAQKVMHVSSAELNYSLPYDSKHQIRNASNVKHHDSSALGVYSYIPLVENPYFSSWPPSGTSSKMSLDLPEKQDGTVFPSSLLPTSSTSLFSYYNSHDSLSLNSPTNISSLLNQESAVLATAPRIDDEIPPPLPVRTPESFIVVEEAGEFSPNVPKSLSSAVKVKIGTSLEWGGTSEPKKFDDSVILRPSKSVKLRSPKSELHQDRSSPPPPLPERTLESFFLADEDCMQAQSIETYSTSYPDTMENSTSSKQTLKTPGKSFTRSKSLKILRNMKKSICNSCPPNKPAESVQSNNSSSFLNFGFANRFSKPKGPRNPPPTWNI

[2] = target: T2, Low molecular weight protein-tyrosine phosphatase A (Mycobacterium tuberculosis, UniProt P9WIA1); assay: Inhibition of Mycobacterium tuberculosis PtpA using p-nitrophenyl phosphate as substrate preincubated for 10 mins followed by substrate addition measured every minute for 10 mins by UV-VIS spectrophotometric analysis
T2 sequence (P9WIA1 whole entry): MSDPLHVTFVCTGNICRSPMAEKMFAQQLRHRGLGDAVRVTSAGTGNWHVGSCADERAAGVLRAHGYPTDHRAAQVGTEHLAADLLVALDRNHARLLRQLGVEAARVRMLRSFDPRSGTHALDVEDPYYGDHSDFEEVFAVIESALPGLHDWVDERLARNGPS

[3] = target: T3, Phosphotyrosine protein phosphatase (Mycobacterium tuberculosis, UniProt A0A045ISB3); assay: Inhibition of Mycobacterium tuberculosis PtpB using p-nitrophenyl phosphate as substrate preincubated for 10 mins followed by substrate addition measured every minute for 10 mins by UV-VIS spectrophotometric analysis
T3 sequence (A0A045ISB3 whole entry): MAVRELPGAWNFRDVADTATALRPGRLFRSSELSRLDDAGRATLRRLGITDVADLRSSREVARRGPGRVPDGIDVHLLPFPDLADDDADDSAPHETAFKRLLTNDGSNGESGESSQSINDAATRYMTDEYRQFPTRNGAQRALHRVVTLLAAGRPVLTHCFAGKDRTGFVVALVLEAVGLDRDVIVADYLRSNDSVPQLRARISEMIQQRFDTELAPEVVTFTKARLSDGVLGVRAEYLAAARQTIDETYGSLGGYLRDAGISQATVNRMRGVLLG

[4] = target: T4, Tyrosine-protein phosphatase non-receptor type 1 (Homo sapiens, UniProt P18031); assay: Inhibition of human PTP1B using p-nitrophenyl phosphate as substrate preincubated for 10 mins followed by substrate addition measured every minute for 10 mins by UV-VIS spectrophotometric analysis
T4 sequence (P18031 whole entry): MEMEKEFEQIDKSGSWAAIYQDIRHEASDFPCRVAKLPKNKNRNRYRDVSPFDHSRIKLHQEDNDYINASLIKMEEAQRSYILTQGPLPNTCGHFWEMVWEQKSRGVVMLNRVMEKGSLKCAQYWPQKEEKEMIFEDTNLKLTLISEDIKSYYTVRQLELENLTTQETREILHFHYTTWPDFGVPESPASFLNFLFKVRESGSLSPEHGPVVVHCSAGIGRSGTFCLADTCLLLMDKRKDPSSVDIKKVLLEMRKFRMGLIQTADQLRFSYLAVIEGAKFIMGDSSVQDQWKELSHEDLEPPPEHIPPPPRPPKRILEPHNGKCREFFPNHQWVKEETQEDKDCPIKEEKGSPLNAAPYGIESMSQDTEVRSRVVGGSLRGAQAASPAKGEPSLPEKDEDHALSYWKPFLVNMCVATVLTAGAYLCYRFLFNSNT

[5] = target: T5, Tyrosine-protein phosphatase non-receptor type 12 (Homo sapiens, UniProt Q05209); assay: Inhibition of PTP-PEST (unknown origin) using p-nitrophenyl phosphate as substrate preincubated for 10 mins followed by substrate addition measured every minute for 10 mins by UV-VIS spectrophotometric analysis
T5 sequence (Q05209 whole entry): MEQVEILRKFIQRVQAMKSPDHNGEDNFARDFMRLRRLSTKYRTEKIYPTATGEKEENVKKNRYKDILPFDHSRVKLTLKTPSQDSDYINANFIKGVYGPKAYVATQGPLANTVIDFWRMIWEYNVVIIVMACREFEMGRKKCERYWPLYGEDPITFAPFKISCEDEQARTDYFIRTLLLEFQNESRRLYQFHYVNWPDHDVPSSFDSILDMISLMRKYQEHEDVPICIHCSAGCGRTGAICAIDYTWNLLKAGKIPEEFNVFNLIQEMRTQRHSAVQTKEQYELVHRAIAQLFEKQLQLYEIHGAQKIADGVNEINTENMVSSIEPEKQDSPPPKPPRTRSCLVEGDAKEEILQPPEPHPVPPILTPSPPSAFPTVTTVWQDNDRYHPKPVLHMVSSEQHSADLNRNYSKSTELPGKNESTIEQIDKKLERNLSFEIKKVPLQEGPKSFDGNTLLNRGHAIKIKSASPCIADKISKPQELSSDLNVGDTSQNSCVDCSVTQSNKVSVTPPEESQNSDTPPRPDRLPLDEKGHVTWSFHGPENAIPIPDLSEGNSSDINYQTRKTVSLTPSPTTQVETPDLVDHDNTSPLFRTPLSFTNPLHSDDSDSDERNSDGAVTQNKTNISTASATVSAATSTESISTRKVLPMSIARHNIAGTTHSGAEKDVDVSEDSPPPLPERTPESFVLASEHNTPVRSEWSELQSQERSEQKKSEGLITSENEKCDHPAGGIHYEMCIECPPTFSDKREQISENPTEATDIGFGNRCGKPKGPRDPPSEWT

[6] = target: T6, Phosphotyrosine protein phosphatase (Mycobacterium tuberculosis) (UniProt A0A045ISB3); assay: Binding affinity to Mycobacterium tuberculosis PtpB assessed as protection against proteolytic cleavage at 100 to 400 uM preincubated for 10 mins before trypsin addition by mass spectrometry
T6 sequence (whole entry): T3 sequence (A0A045ISB3 whole entry)

[7] = target: T3, Phosphotyrosine protein phosphatase; assay: Binding affinity to Mycobacterium tuberculosis PtpB by UV-VIS spectrophotometric analysis
[8] = target: T6, Phosphotyrosine protein phosphatase (Mycobacterium tuberculosis); assay: Binding affinity to Mycobacterium tuberculosis PtpB assessed as binding constant by fluorescence based assay
[9] = target: T3, Phosphotyrosine protein phosphatase; assay: Inhibition of Mycobacterium tuberculosis PtpB using p-nitrophenyl phosphate as substrate preincubated for 10 mins followed by substrate addition measured every minute for 10 mins by Michaelis-Menten plot analysis
[10] = target: T6, Phosphotyrosine protein phosphatase (Mycobacterium tuberculosis); assay: Time independent inhibition of Mycobacterium tuberculosis PtpB at 0.2 uM pre-incubated for 0 to 10 mins before p-nitrophenyl phosphate substrate addition
[11] = target: T6, Phosphotyrosine protein phosphatase (Mycobacterium tuberculosis); assay: Reversible inhibition of Mycobacterium tuberculosis PtpB using p-nitrophenyl phosphate as substrate assessed as enzyme recovery at 10 times IC50 preincubated for 10 mins followed by 100-fold dilution; set-up: scale not given: the % may be the effect or the level left
[12] = target: T3, Phosphotyrosine protein phosphatase; assay: Binding affinity to Mycobacterium tuberculosis PtpB by fluorescence based assay
[13] = test system: Mycobacterium tuberculosis; assay: Antitubercular activity against Mycobacterium tuberculosis H37Ra ATCC 25177 infected in human THP1 cells assessed as reduction in CFU at 13.2 uM after 72 hrs; assay type: functional, organism-based
[14] = target: T6, Phosphotyrosine protein phosphatase (Mycobacterium tuberculosis); assay: Binding affinity to Mycobacterium tuberculosis PtpB assessed as sequence coverage level at 100 uM preincubated for 10 mins before trypsin addition by mass spectrometry based peptide mass fingerprint assay (reference value: 92%)
[15] = target: T6, Phosphotyrosine protein phosphatase (Mycobacterium tuberculosis); assay: Competitive inhibition of Mycobacterium tuberculosis PtpB using p-nitrophenyl phosphate as substrate up to 0.3 uM preincubated for 10 mins followed by substrate addition measured every minute for 10 mins by Michaelis-Menten plot analysis
[16] = target: T6, Phosphotyrosine protein phosphatase (Mycobacterium tuberculosis); assay: Binding affinity to Mycobacterium tuberculosis PtpB assessed as fluorescence quenching at 0.1 to 3.8 uM by spectropolarimetry
[17] = test system: Mycobacterium tuberculosis; assay: Antitubercular activity against Mycobacterium tuberculosis H37Ra ATCC 25177 after 7 days by resazurin microtiter assay; assay type: functional; conditions: H37Ra ATCC 25177, 168 h
[18] = target: T6, Phosphotyrosine protein phosphatase (Mycobacterium tuberculosis); assay: Binding affinity to Mycobacterium tuberculosis PtpB assessed as Stern-Volmer quenching constant by UV-VIS spectrophotometric analysis
[19] = Cytotoxicity against human THP1 cells after 72 hrs by MTT assay; assay type: cell-based; conditions: THP-1 cells

Structure (SMILES)	IC50 [1] [µM]	IC50 [2] [µM]	IC50 [3] [µM]	IC50 [4] [µM]	IC50 [5] [µM]	Ki [3] [µM]	Activity [6]	Kd [7] [µM]	Ka [8] [×10⁶ /M]	Ki [9] [µM]	inhibition [10]	Activity [11] [%]	Kd [12] [µM]	Activity [13]	Activity [14] [%]	inhibition [15]	Activity [16]	MIC [17] [µg/mL]	Ka [18] [×10⁶ /M]	CC50 at 72 h [19] [µg/mL]
CC(C)=CCc1c(O)ccc(C(=O)[C@H]2[C@@H](c3c(O)cc(-c4cc5ccc(O)cc5o4)cc3O)C=C(C)C[C@@H]2c2ccc(O)cc2O)c1O [CHALCOMORACIN]	7.29	2.43	1.43	1.94	8.52	–	–	–	–	–	–	–	–	–	–	–	–	–	–	–
O=c1cc(-c2ccc(O)cc2O)oc2cc(O)cc(O)c12 [NORARTOCARPETIN]	30.3	12	1.2	5.18	20.9	–	–	–	–	–	–	–	–	–	–	–	–	–	–	–
CC1=C[C@@H](c2c(O)ccc([C@@H]3CC(=O)c4c(O)cc(O)cc4O3)c2O)[C@H](C(=O)c2ccc(O)cc2O)[C@@H](c2ccc(O)cc2O)C1	12.1	14	4.7	7.98	18.6	–	–	–	–	–	–	–	–	–	–	–	–	–	–	–
CC(C)=CCc1c(O)ccc(C(=O)[C@H]2[C@@H](c3c(O)cc(/C=C/c4ccc(O)cc4O)cc3O)C=C(C)C[C@@H]2c2ccc(O)cc2O)c1O	–	–	1.9	–	–	1.6	–	–	–	–	–	–	–	–	–	–	–	–	–	–
CC(C)=CCc1c(O)ccc(C(=O)[C@@H]2[C@@H](c3ccc(O)cc3O)CC(C)=C[C@H]2c2c(O)cc(O)c3c(=O)c(CC=C(C)C)c(-c4ccc(O)cc4O)oc23)c1O	11.8	1.49	0.36	2.54	5.22	–	Active	1	1.2	0.2	Active	40	0.85	inactive	93	Active	Active	32 (≈ 42.1 µM)	1	20.2 (≈ 26.6 µM)
